Experiment [1] relates to Staphylococcus aureus (S. aureus) 11540 strain. The experiment in a line: Standard microdilution assay, MIC against S. aureus 11540. To be noted: S. aureus 11540 strain, standard microdilution assay, cutoff 16 micrograms/mL, read-out: MIC S. aureus. In kind it is cell-based. In short, it runs like this:
(§1)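 MIC determined by broth microdilution following CLSI protocols, with reference strains run in parallel for quality control. Activity scored +/− at a cutoff of 16 micrograms/mL.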

For experiment [2], the system named is Eschericia coli (E. coli) strain ATCC25922. The experiment in a line: Standard microdilution assay, MIC against E. coli ATCC25922. Type of experiment: cell-based. To be noted: Escherichia coli; E. coli strain ATCC25922, standard microdilution assay; cutoff 16 micrograms/mL; read-out: MIC E. Coli. The essentials: as §1
A general note: Broth dilution looks for growth in wells or tubes with falling amounts of substance.

The MIC is the lowest concentration found to suppress growth. For the molecule `C[C@H](N)CCCc1cc(Cl)c(F)c(-c2cc3cn(-c4ccc([C@@H]5CCC[C@@H](CNCc6nccn6C)N5)cc4)c(=O)nc3[nH]2)c1` [Compound 551], the MIC in experiment [1] and in experiment [2] was over 16 µg/mL each time.
Consider `C[C@H](N)CCCc1cc(Cl)c(F)c(-c2cc3cn(-c4ccc([C@@H]5CCC[C@@H](CCNc6ncc[nH]6)N5)cc4)c(=O)nc3[nH]2)c1` [Compound 552], for which the MIC in experiment [1] and in experiment [2] was under 16 µg/mL in each case.
Turning to `C[C@H](N)CCCc1cc(OC(F)(F)F)c(F)c(-c2cc3cn(-c4ccc([C@@H]5CCC[C@@H](CCNc6ncc[nH]6)N5)cc4)c(=O)nc3[nH]2)c1` [Compound 553], the MIC in experiment [1] and in experiment [2] was under 16 µg/mL each time.
Turning to `C[C@H](N)CCCc1cc(Cl)c(F)c(-c2cc3cn(-c4ccc([C@H]5CCO[C@H](CCN)C5)cc4)c(=O)nc3[nH]2)c1` [Compound 554], the MIC in experiment [1] and in experiment [2] was under 16 µg/mL in each case.
Consider `C[C@H](N)CCCc1cc(Cl)c(F)c(-c2cc3cn(-c4ccc([C@H]5CCO[C@H](CCNC(=N)N)C5)cc4)c(=O)nc3[nH]2)c1` [Compound 555], for which the MIC in experiment [1] and in experiment [2] was under 16 µg/mL each time.
`C[C@H](N)CCCc1cc(Cl)c(F)c(-c2cc3cn(-c4ccc([C@@H]5CCC[C@@H](CCCNC(=N)N)N5)cc4)c(=O)nc3[nH]2)c1` [Compound 556]: the MIC in experiment [1] and in experiment [2] was under 16 µg/mL in each case.
In the case of `C[C@H](N)CCCc1cc(Cl)c(F)c(-c2cc3cn(-c4ccc([C@@H]5CCC[C@@H](CCCN)N5)cc4)c(=O)nc3[nH]2)c1` [Compound 557], the MIC in experiment [1] and in experiment [2] was under 16 µg/mL each time.
As to `C[C@H](N)CCCc1cc(Cl)c(F)c(-c2cc3cn(-c4ccc([C@@H]5CCC[C@@H](CNCc6ccncc6)N5)cc4)c(=O)nc3[nH]2)c1` [Compound 558], the MIC in experiment [1] and in experiment [2] was under 16 µg/mL each time.
With `C[C@H](N)CCCc1cc(Cl)c(F)c(-c2cc3cn(-c4ccc([C@@H]5CCC[C@@H](CNCC6CCCC6)N5)cc4)c(=O)nc3[nH]2)c1` [Compound 559], the MIC in experiment [1] and in experiment [2] was under 16 µg/mL in each case.
Turning to `Cc1nnc(NC[C@@H](CCNC(=N)N)NCc2ccc(-n3cc4cc(-c5cc(CCC[C@H](C)N)cc(Cl)c5F)[nH]c4nc3=O)cc2)s1` [Compound 560], the MIC in experiment [1] and in experiment [2] was under 16 µg/mL each time.
In the case of `C[C@H](N)CCCc1cc(Cl)c(F)c(-c2cc3cn(-c4ccc([C@H]5CCO[C@H](CNC(=N)N)C5)cc4)c(=O)nc3[nH]2)c1` [Compound 561], the MIC in experiment [1] and in experiment [2] was under 16 µg/mL throughout.
Consider `C[C@H](N)CCCc1cc(Cl)c(F)c(-c2cc3cn(-c4ccc(CNC5CC(NC(=N)N)C5)cc4)c(=O)nc3[nH]2)c1` (some centres unmarked) [Compound 563], for which the MIC in experiment [1] and in experiment [2] was under 16 µg/mL each time.
Take `C[C@H](N)CCCc1cc(Cl)c(F)c(-c2cc3cn(-c4ccc(C5=NCCCN5)cc4)c(=O)nc3[nH]2)c1` [Compound 564]: the MIC in experiment [1] and in experiment [2] was under 16 µg/mL in each case.
In the case of `C[C@H](N)CCCc1cc(OC(F)(F)F)c(F)c(-c2cc3cn(-c4ccc(C5=NCCCN5)cc4)c(=O)nc3[nH]2)c1` [Compound 565], the MIC in experiment [1] and in experiment [2] was under 16 µg/mL throughout.
For `C[C@H](N)CCCc1cc(Cl)c(F)c(-c2cc3cn(-c4ccc(C(=N)N)cc4)c(=O)nc3[nH]2)c1` [Compound 566], the MIC was under 16 µg/mL in experiment [1] and over 16 µg/mL in experiment [2].
The like results for `C[C@H](N)CCCc1cc(Cl)c(F)c(-c2cc3cn(-c4ccc([C@@H]5CCC[C@H]6CCN=CN65)cc4)c(=O)nc3[nH]2)c1` [Compound 567] were, in that order, under 16 µg/mL and over 16 µg/mL.
In the case of `CC1=NCC[C@@H]2CCC[C@@H](c3ccc(-n4cc5cc(-c6cc(CCC[C@H](C)N)cc(Cl)c6F)[nH]c5nc4=O)cc3)N12` [Compound 568], the MIC in experiment [1] was under 16 µg/mL; in experiment [2] it was over 16 µg/mL.
Take `C[C@@H](CN)CN1CC[C@@H](c2cc3cn(-c4ccc(CNCCCNC(=N)N)cc4)c(=O)nc3[nH]2)C1` [Compound 569]: the minimum inhibitory concentration (MIC) in experiment [1] and in experiment [2] was under 16 µg/mL each time.
`C[C@H](CN)CN1CC[C@@H](c2cc3cn(-c4ccc([C@H](C)NCCCNC(=N)N)cc4)c(=O)nc3[nH]2)C1` [Compound 570]: the MIC in experiment [1] and in experiment [2] was under 16 µg/mL each time.
For the molecule `C[C@H](CN)COC(=O)N1CC[C@@H](c2cc3cn(-c4ccc(CNCCCNC(=N)N)cc4)c(=O)nc3[nH]2)C1` [Compound 571], the MIC in experiment [1] and in experiment [2] was under 16 µg/mL throughout.
`C[C@H](N)CCN1CC[C@@H](c2cc3cn(-c4ccc(CNCCCNC(=N)N)cc4)c(=O)nc3[nH]2)C1` [Compound 572]: the MIC in experiment [1] and in experiment [2] was under 16 µg/mL each time.
As for `C[C@H](N)CCN1CC[C@@H](c2cc3cn(-c4ccc([C@H](C)NCCCNC(=N)N)cc4)c(=O)nc3[nH]2)C1` [Compound 573], the MIC in experiment [1] and in experiment [2] was under 16 µg/mL throughout.
On to `C[C@@H](CN)CN1CC[C@@H](c2cc3cn(-c4ccc(CN5CCCNC5=N)cc4)c(=O)nc3[nH]2)C1` [Compound 574], for which the MIC in experiment [1] was over 16 µg/mL; in experiment [2] it was under 16 µg/mL.
For the molecule `C[C@@H](CN)CN1CC[C@@H](c2cc3cn(-c4ccc([C@H](C)NCCCNC(=N)N)cc4)c(=O)nc3[nH]2)C1` [Compound 575], the MIC in experiment [1] and in experiment [2] was under 16 µg/mL in each case.
As for `C[C@@H](CNC(=N)N)CN1CC[C@@H](c2cc3cn(-c4ccc([C@H](C)NCCCNC(=N)N)cc4)c(=O)nc3[nH]2)C1` [Compound 576], the MIC in experiment [1] and in experiment [2] was under 16 µg/mL in each case.
On to `C[C@H](N)CCCN1CC[C@@H](c2cc3cn(-c4ccc(CNCCCNC(=N)N)cc4)c(=O)nc3[nH]2)C1` [Compound 577], for which the MIC in experiment [1] and in experiment [2] was under 16 µg/mL throughout.
For the molecule `C[C@H](N)CCCN1CC[C@@H](c2cc3cn(-c4ccc([C@H](C)NCCCNC(=N)N)cc4)c(=O)nc3[nH]2)C1` [Compound 578], the MIC in experiment [1] and in experiment [2] was under 16 µg/mL each time.
On to `C[C@H](N)CCN1CCC(c2cc3cn(-c4ccc([C@@H]5CCC[C@@H](CCNC(=N)N)N5)cc4)c(=O)nc3[nH]2)C1` (some centres unmarked) [Compound 579], for which the MIC in experiment [1] and in experiment [2] was under 16 µg/mL each time.
`C[C@@H](CN)CN1CC[C@@H](c2cc3cn(-c4ccc(C(=N)NC5CCCC5)cc4)c(=O)nc3[nH]2)C1` [Compound 580]: the MIC in experiment [1] and in experiment [2] was over 16 µg/mL in each case.
On to `C[C@@H](CN)CN1CC[C@@H](c2cc3cn(-c4ccc(C(=N)NCC[C@H](C)N)cc4)c(=O)nc3[nH]2)C1` [Compound 581], for which the MIC in experiment [1] and in experiment [2] was under 16 µg/mL each time.
For the molecule `C[C@H](N)CCCc1cc(-c2cc3cn(CC(=O)NCc4ccc(CNC(=N)N)cc4)c(=O)nc3[nH]2)cc(C(F)(F)F)c1` [Compound 582], the MIC in experiment [1] and in experiment [2] was over 16 µg/mL throughout.

These data come from patent US10815238B2, “Antimicrobial compounds and methods of making and using the same” (BIOVERSYS AG, priority 2013, dated 2020).
